Measurements as given in paper PMC6273978, “Synthesis and Pharmacological Evaluation of Novel Pleuromutilin Derivatives with Substituted Benzimidazole Moieties” (Molecules, 2016).
Values after ≈ are worked out from the molar mass of the structure shown.

What was measured:
[1] = tested on: E. coli; assay: Oxford cup assay, zone of inhibition; type: cell-based; settings: Escherichia coli
Protocol: (§1) The Oxford cup assays were carried out to evaluate the antibacterial activities against the above-mentioned six bacterial strains. The zones of inhibition for two concentrations (320 and 160 μg/mL) of the synthetic compounds and tiamulin fumarate were measured. The results of Oxford cup assay correspond with that obtained by agar dilution method (MICs) as a whole.
(§2) The procedure for Oxford cup assays was the same as that previously reported. Briefly, inoculums were prepared in 0.9% saline using McFarland standard and spread uniformly on nutrient agar plates. The 320 and 160 µg/mL of all the tested compounds were added individually into the Oxford cups that were placed at equal distances above the agar surfaces. The zone of inhibition for each concentration was measured after a 24–36 h incubation at 37 °C. The same procedure was repeated in triplicate.

[2] = tested on: S. aureus; assay: Oxford cup assay, zone of inhibition; type: cell-based; settings: Staphylococcus aureus
Protocol: as §1, §2

[3] = tested on: MRSA; assay: Oxford cup assay, zone of inhibition; type: cell-based; settings: Staphylococcus aureus
Protocol: as §1, §2

[4] = tested on: S. warneri; assay: Oxford cup assay, zone of inhibition; type: cell-based; settings: Staphylococcus warneri
Protocol: as §1, §2

[5] = tested on: S. haemolyticus; assay: Oxford cup assay, zone of inhibition; type: cell-based; settings: Staphylococcus haemolyticus
Protocol: as §1, §2

[6] = tested on: Escherichia coli (E. coli); assay: MIC testing, agar dilution method; type: cell-based; settings: 36.5 °C, 24–48 h
Description: (§3) The synthesized pleuromutilin derivatives 3 and 4a–l, with tiamulin fumarate used a as reference drug, were screened for their in vitro antibacterial activity against Escherichia coli (E. coli), Staphylococcus aureus (S. aureus), Methicillin-resistant Staphylococcus aureus (MRSA), Staphylococcus vitulinus (S. vitulinus), Staphylococcus warneri (S. warneri), and Staphylococcus haemolyticus (S. haemolyticus). The antibacterial activities are reported in Table 1 as the minimum inhibitory concentration (MIC) using the agar dilution method. The MICs of the 13 new pleuromutilin derivatives in vitro against E. coli ranged from 10 to 80 μg/mL; against S. aureus, MRSA, S. vitulinus, S. warneri, and S. haemolyticus ranged from 0.156 to 40 μg/mL, respectively.
(§4) The MIC for the synthesized compounds (3 and 4a–l) and tiamulin fumarate used as a reference drug were determined using the agar dilution method according to the National Committee for Clinical Laboratory Standards (NCCLS). Tested compounds were dissolved in 25%–40% DMSO to a solution with a concentration of 1280 µg/mL, whereas tiamulin fumarate was directly dissolved in 10 mL of distilled water at the same concentration as the tested compounds. All the solutions were then diluted twofold with sterile water to provide 11 dilutions (final concentration is 0.625 µg/mL). A 2 mL volume of the 2-fold serial dilution of each test compound/drug was incorporated into 18 mL of hot Muellere-Hinton agar medium. Inoculums, including five Gram (+), S. aureus, MRSA, S. vitulinus, S. warneri, S. haemolyticus, and one Gram (−), E. coli were prepared from blood slants and adjusted to approximately 10^5–10^6 CFU/mL with sterile saline (0.90% NaCl). A 10 µL amount of bacterial suspension was spotted onto Muellere-Hinton agar plates containing serial dilutions of the compounds/drug. The plates were incubated at 36.5 °C for 24–48 h. The same procedure was repeated in triplicate.

[7] = tested on: Staphylococcus warneri (S. warneri); assay: MIC testing, agar dilution method; type: cell-based; settings: 36.5 °C, 24–48 h
Description: as §3, §4

[8] = tested on: Methicillin-resistant Staphylococcus aureus (MRSA); assay: MIC testing, agar dilution method; type: cell-based; settings: 36.5 °C, 24–48 h
Description: as §3, §4

[9] = tested on: Staphylococcus vitulinus (S. vitulinus); assay: MIC testing, agar dilution method; type: cell-based; settings: Mammaliicoccus vitulinus, 36.5 °C, 24–48 h
Description: as §3, §4

[10] = tested on: Staphylococcus haemolyticus (S. haemolyticus); assay: MIC testing, agar dilution method; type: cell-based; settings: 36.5 °C, 24–48 h
Description: as §3, §4

[11] = tested on: Staphylococcus aureus (S. aureus); assay: MIC testing, agar dilution method; type: cell-based; settings: 36.5 °C, 24–48 h
Description: as §3, §4

[12] = tested on: S. vitulinus; assay: Oxford cup assay, zone of inhibition; type: cell-based, Staphylococcus vitulinus; settings: Mammaliicoccus vitulinus
Protocol: as §1, §2

SMILES	MIC [6]	MIC [7]	MIC [8]	MIC [9]	MIC [11]	zone of inhibition at 160 µg/mL [1]	zone of inhibition at 320 µg/mL [1]	zone of inhibition at 160 µg/mL [2]	zone of inhibition at 320 µg/mL [2]	zone of inhibition at 160 µg/mL [3]	zone of inhibition at 320 µg/mL [3]	zone of inhibition at 160 µg/mL [4]	zone of inhibition at 320 µg/mL [4]	zone of inhibition at 160 µg/mL [5]	zone of inhibition at 320 µg/mL [5]	MIC [10]	zone of inhibition at 160 µg/mL [12]	zone of inhibition at 320 µg/mL [12]
C=C[C@]1(C)C[C@@H](OC(=O)CSc2nc3ccc(NC(=O)c4ccccc4Cl)cc3[nH]2)[C@]2(C)[C@H](C)CC[C@]3(CCC(=O)[C@H]32)[C@@H](C)[C@@H]1O [Compound 4a, 14-O-((2-Chlorobenzamide-5-aminobenzimidazole-2-yl)thioacetyl) mutilin]	40 µg/mL (≈ 60.2 µM)	40 µg/mL (≈ 60.2 µM)	40 µg/mL (≈ 60.2 µM)	40 µg/mL (≈ 60.2 µM)	40 µg/mL (≈ 60.2 µM)	0 mm	11.3 mm	9.02 mm	12.4 mm	15.9 mm	20.2 mm	21.6 mm	22.4 mm	20.4 mm	24.9 mm	5 µg/mL (≈ 7.53 µM)	13.8 mm	19.2 mm
C=C[C@]1(C)C[C@@H](OC(=O)CSc2nc3ccc(NC(=O)c4ccc(Cl)cc4)cc3[nH]2)[C@]2(C)[C@H](C)CC[C@]3(CCC(=O)[C@H]32)[C@@H](C)[C@@H]1O [Compound 4c, 14-O-((4-Chlorobenzamide-5-aminobenzimidazole-2-yl)thioacetyl) mutilin]	40 µg/mL (≈ 60.2 µM)	40 µg/mL (≈ 60.2 µM)	40 µg/mL (≈ 60.2 µM)	40 µg/mL (≈ 60.2 µM)	40 µg/mL (≈ 60.2 µM)	17.2 mm	17.7 mm	14.3 mm	16.5 mm	14.6 mm	15.5 mm	19.2 mm	22.2 mm	16.9 mm	20.9 mm	40 µg/mL (≈ 60.2 µM)	20.5 mm	21.8 mm
C=C[C@]1(C)C[C@@H](OC(=O)CSc2nc3ccc(NC(=O)c4ccccc4C)cc3[nH]2)[C@]2(C)[C@H](C)CC[C@]3(CCC(=O)[C@H]32)[C@@H](C)[C@@H]1O [Compound 4d, 14-O-((2-Methylbenzamide-5-aminobenzimidazole-2-yl)thioacetyl) mutilin]	80 µg/mL (≈ 124 µM)	40 µg/mL (≈ 62.1 µM)	40 µg/mL (≈ 62.1 µM)	40 µg/mL (≈ 62.1 µM)	10 µg/mL (≈ 15.5 µM)	0 mm	0 mm	14.7 mm	17.8 mm	16.3 mm	19.7 mm	20.6 mm	22.3 mm	17.4 mm	18.4 mm	40 µg/mL (≈ 62.1 µM)	18.2 mm	19.1 mm
C=C[C@]1(C)C[C@@H](OC(=O)CSc2nc3ccc(NC(=O)c4ccc(C)cc4)cc3[nH]2)[C@]2(C)[C@H](C)CC[C@]3(CCC(=O)[C@H]32)[C@@H](C)[C@@H]1O [Compound 4f, 14-O-((4-Methylbenzamide-5-aminobenzimidazole-2-yl)thioacetyl) mutilin]	80 µg/mL (≈ 124 µM)	20 µg/mL (≈ 31.1 µM)	40 µg/mL (≈ 62.1 µM)	40 µg/mL (≈ 62.1 µM)	40 µg/mL (≈ 62.1 µM)	0 mm	8.64 mm	16.7 mm	17.8 mm	14.1 mm	17.3 mm	22.9 mm	22.9 mm	16.2 mm	20.7 mm	40 µg/mL (≈ 62.1 µM)	14 mm	15.1 mm
C=C[C@]1(C)C[C@@H](OC(=O)CSc2nc3ccc(NC(=O)c4ccccc4OC)cc3[nH]2)[C@]2(C)[C@H](C)CC[C@]3(CCC(=O)[C@H]32)[C@@H](C)[C@@H]1O [Compound 4g, 14-O-((2-Methoxybenzamide-5-aminobenzimidazole-2-yl)thioacetyl) mutilin]	80 µg/mL (≈ 121 µM)	40 µg/mL (≈ 60.6 µM)	40 µg/mL (≈ 60.6 µM)	40 µg/mL (≈ 60.6 µM)	40 µg/mL (≈ 60.6 µM)	0 mm	9.38 mm	13.7 mm	18.3 mm	19.1 mm	21.5 mm	18.5 mm	20.1 mm	24.3 mm	25.6 mm	10 µg/mL (≈ 15.2 µM)	16.2 mm	18 mm

Continued by falling MIC [6], values first:

MIC [6]	MIC [7]	MIC [8]	MIC [9]	MIC [11]	SMILES	zone of inhibition at 160 µg/mL [1]	zone of inhibition at 320 µg/mL [1]	zone of inhibition at 160 µg/mL [2]	zone of inhibition at 320 µg/mL [2]	zone of inhibition at 160 µg/mL [3]	zone of inhibition at 320 µg/mL [3]	zone of inhibition at 160 µg/mL [4]	zone of inhibition at 320 µg/mL [4]	zone of inhibition at 160 µg/mL [5]	zone of inhibition at 320 µg/mL [5]	MIC [10]	zone of inhibition at 160 µg/mL [12]	zone of inhibition at 320 µg/mL [12]
80 µg/mL (≈ 120 µM)	20 µg/mL (≈ 30.1 µM)	20 µg/mL (≈ 30.1 µM)	10 µg/mL (≈ 15.1 µM)	40 µg/mL (≈ 60.2 µM)	C=C[C@]1(C)C[C@@H](OC(=O)CSc2nc3ccc(NC(=O)c4cccc(Cl)c4)cc3[nH]2)[C@]2(C)[C@H](C)CC[C@]3(CCC(=O)[C@H]32)[C@@H](C)[C@@H]1O [Compound 4b, 14-O-((3-Chlorobenzamide-5-aminobenzimidazole-2-yl)thioacetyl) mutilin]	10.4 mm	0 mm	12.3 mm	15.8 mm	17.3 mm	21.7 mm	16.5 mm	19.5 mm	20.3 mm	20.4 mm	20 µg/mL (≈ 30.1 µM)	20.5 mm	23.8 mm
80 µg/mL (≈ 124 µM)	40 µg/mL (≈ 62.1 µM)	40 µg/mL (≈ 62.1 µM)	40 µg/mL (≈ 62.1 µM)	40 µg/mL (≈ 62.1 µM)	C=C[C@]1(C)C[C@@H](OC(=O)CSc2nc3ccc(NC(=O)c4cccc(C)c4)cc3[nH]2)[C@]2(C)[C@H](C)CC[C@]3(CCC(=O)[C@H]32)[C@@H](C)[C@@H]1O [Compound 4e, 14-O-((3-Methylbenzamide-5-aminobenzimidazole-2-yl)thioacetyl) mutilin]	0 mm	0 mm	17.9 mm	19.4 mm	25.6 mm	27.8 mm	20.8 mm	21.5 mm	18.3 mm	20.8 mm	40 µg/mL (≈ 62.1 µM)	18.1 mm	20.3 mm
40 µg/mL (≈ 60.6 µM)	40 µg/mL (≈ 60.6 µM)	40 µg/mL (≈ 60.6 µM)	40 µg/mL (≈ 60.6 µM)	40 µg/mL (≈ 60.6 µM)	C=C[C@]1(C)C[C@@H](OC(=O)CSc2nc3ccc(NC(=O)c4cccc(OC)c4)cc3[nH]2)[C@]2(C)[C@H](C)CC[C@]3(CCC(=O)[C@H]32)[C@@H](C)[C@@H]1O [Compound 4h, 14-O-((3-Methoxybenzamide-5-aminobenzimidazole-2-yl)thioacetyl) mutilin]	15.3 mm	18 mm	15.9 mm	18.7 mm	16.3 mm	19.7 mm	17.9 mm	19.8 mm	25.4 mm	28.4 mm	10 µg/mL (≈ 15.2 µM)	19.8 mm	21.7 mm
